Patent publication US11083717B2, “Compositions and methods for drug sensitization of parasites” (The Texas A&M University System, priority 2015, dated 2021)
pIC50: −log10 of the molar value. ≈ marks a conversion by molar mass, not a printed value. Read-outs that look alike come from different tables or passages of the source.

Assays:
[1] = test system: Cryptosporidium parvum (CP); assay: Cell culture model of Cryptosporidium parvum infection in HCT-8 cells, real-time qRT-PCR; assay type: cell-based; conditions: Cryptosporidium parvum
In short: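 HCT-8 monolayers were infected with C. parvum Iowa oocysts (1.5×10^4/well) for 3 h, then compounds were added after medium exchange and cells were incubated 41 h more (44 h total, 37 °C). Parasite Cp18S rRNA was measured by one-step SYBR qRT-PCR of lysates, normalized to host Hs18S, and % inhibition at the stated µM was derived from a standard curve.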

S. cerevisiae = assay: in vitro; conditions: Saccharomyces cerevisiae
human fibroblast = assay: in vitro; conditions: human
[2] = target: Human ether-a-go-go-related gene (hERG) (Homo sapiens, UniProt Q12809); assay: hERG test (potential cardiotoxicity); assay type: biochemical; conditions: read-out: hERG (Abbvie)
Chain of Human ether-a-go-go-related gene (hERG) (Q12809 whole entry): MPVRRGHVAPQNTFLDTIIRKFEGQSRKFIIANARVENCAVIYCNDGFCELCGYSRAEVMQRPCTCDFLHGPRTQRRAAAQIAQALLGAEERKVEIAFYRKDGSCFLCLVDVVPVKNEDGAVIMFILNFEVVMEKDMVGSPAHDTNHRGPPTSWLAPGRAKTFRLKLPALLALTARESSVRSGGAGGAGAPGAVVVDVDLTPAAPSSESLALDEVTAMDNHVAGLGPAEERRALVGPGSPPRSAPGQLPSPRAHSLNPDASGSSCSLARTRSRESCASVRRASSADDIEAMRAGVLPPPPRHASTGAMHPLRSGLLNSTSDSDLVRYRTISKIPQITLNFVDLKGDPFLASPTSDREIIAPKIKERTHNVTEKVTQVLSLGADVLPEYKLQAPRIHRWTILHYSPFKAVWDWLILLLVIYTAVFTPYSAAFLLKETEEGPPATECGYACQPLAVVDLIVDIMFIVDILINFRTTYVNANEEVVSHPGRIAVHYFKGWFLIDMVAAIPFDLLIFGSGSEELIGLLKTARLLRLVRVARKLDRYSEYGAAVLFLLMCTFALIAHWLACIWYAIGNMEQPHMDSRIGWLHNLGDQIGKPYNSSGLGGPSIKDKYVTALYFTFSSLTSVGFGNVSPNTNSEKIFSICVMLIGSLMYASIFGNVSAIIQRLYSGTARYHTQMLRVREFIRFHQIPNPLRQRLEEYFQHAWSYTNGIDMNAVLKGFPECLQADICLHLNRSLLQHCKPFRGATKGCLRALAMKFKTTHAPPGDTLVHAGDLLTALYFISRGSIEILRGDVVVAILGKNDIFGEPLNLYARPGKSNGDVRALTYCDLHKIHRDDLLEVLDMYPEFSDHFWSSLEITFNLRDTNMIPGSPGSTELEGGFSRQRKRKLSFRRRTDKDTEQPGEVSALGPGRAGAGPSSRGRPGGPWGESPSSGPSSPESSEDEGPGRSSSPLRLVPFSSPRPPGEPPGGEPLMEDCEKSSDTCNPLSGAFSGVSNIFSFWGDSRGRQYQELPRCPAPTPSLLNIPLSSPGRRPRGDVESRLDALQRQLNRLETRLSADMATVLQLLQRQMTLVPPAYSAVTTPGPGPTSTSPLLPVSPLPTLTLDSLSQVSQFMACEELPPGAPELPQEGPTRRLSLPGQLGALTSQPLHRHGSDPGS

[3] = MCLint in vitro intrinsic clearance, mouse (MLM); assay type: in vitro ADME
[4] = HCLint in vitro intrinsic clearance, human (HLM); assay type: in vitro ADME
Kinetic solubility = assay type: physicochemical
Plasma protein binding = assay type: in vitro ADME; conditions: mouse, mice, read-out: PPB (converted)
Cryptosporidium parvum = test system: Cryptosporidium parvum
Method: The anticryptosporidial activity of the in vitro inhibitors was assessed in the IL-12 knockout mouse model that resembles the acute human disease (Ehigiator H N, Romagnoli P, Borgelt K, Fernandez M, McNair N, Secor W E, Mead J R. 2005. Mucosal cytokine and antigen-specific responses to Cryptosporidium parvum in IL-12p40 KO mice. Parasite Immunol. 27: 17-28; Campbell L D, Stewart J N, Mead J R. 2002. Susceptibility to Cryptosporidium parvum infections in cytokine- and chemokine-receptor knockout mice. J. Parasitol. 88:1014-1016). The protocol was approved by the Institutional Animal Care and Use Committees of Emory University, the AtlantaVAMedical Center, and Brandeis University. Mice (6 to 10 per group) were inoculated with 1,000 purified CP oocysts (Iowa isolate, from cattle). Treatment by gavage began 4 h postinfection with either vehicle (5% dimethyl sulfoxide (DMSO) in canola oil), 50-100 mg/kg compound, or 2,000 mg/kg paromomycin. Compounds were given for 7 days, and mice were sacrificed on day 8 (peak infection). Parasite load was quantified by fluorescence-activated cell sorting (FACS) assays for the presence of the oocysts in the feces at days 0, 4, and 7. Fecal pellets from individual mice were routinely collected daily and homogenized in adjusted volumes of 2.5% potassium dichromate. Samples were processed individually. Aliquots (200 ul) of vortexed samples were processed over microscale sucrose gradients as previously described (Arrowood M J, Hurd M R, Mead J R. 1995. A new method for evaluating experimental cryptosporidial parasite loads using immunofluorescent flowcytometry. J. Parasitol. 81:404-409). The oocyst-containing fraction was collected, washed, and treated with monoclonal antibody (OW5O-FITC) for 20 min. Samples were adjusted to 600 ul, and a portion (100 ul) was assayed with a 102-s sampling interval using logical gating of forward/side scatter and OW5O-FITC fluorescence signal on a Becton, Dickinson FACScan flow cytometer. Flow cytometry data were evaluated by analysis of variance (KaleidaGraph (Synergy Software, Reading Pa.); Microsoft Excel (Microsoft Corporation, Redmond, Wash.)).
NZ-366 (50 mg/kg) and NZ-369 (100 mg/kg) were administered via gavage in a single daily dose to IL-12 knockout mice that were infected with 1,000 CP oocysts. Additional control groups included those treated with single daily doses of vehicle, and paromomycin (Prm) (2,000 mg/kg), by oral gavage.

hERG = hERG (Homo sapiens, UniProt Q12809); assay: hERG test (potential cardiotoxicity); assay type: biochemical; conditions: human; read-out: hERG (Abbvie)
Chain of hERG (Q12809 whole entry): as above

[5] = 44 h, CP in HCT-8 cells, 44 h infection, 50% reduction of parasite growth vs control, NA: not active, read-out: MIC50
[6] = NZ-366 50 mg/kg, NZ-369 100 mg/kg, paromomycin 2,000 mg/kg

SMILES | MIC50 [1, 5] [nM] | MIC50 ([1]; read-out: MIC50 (nM) (CP)) | pIC50 (in vitro; Saccharomyces cerevisiae) | pIC50 (in vitro; human) | concentrations at which not toxic, S. cerevisiae cytotoxicity testing (S. cerevisiae) [µM] | concentrations at which not toxic, human fibroblast cytotoxicity testing (human fibroblast) [µM] | pIC50 [2] | MCLint (mL/min/g liver), MLM [3] | HCLint (mL/min/g liver), HLM [4] | Kinetic Sol. (Kinetic solubility) [µM] | fraction unbound (Plasma protein binding) | Mouse Model (Mead) DPI7 (Cryptosporidium parvum; @50 mg/kg, day 7 post infection) | overt toxicity in the treated infected mice (Cryptosporidium parvum; NZ-366 50 mg/kg, NZ-369 100 mg/kg, 7 days) | anticryptosporidial activity, fecal oocysts day 7 post infection (Cryptosporidium parvum; NZ-366 50 mg/kg, NZ-369 100 mg/kg, gavage, single daily dose, FIG. 1) | effectiveness compared with paromomycin after a single dose (Cryptosporidium parvum; [6]) | effectiveness compared with paromomycin over the course of the study (Cryptosporidium parvum; [6]) | pIC50 (hERG)
CC(C(=O)N1CCN(C)CC1)c1ccc(Oc2nc3ccc(Cl)cc3s2)cc1 (stereo not drawn) [NZ-366, 2-{4-[(6-chloro-1,3-benzothiazol-2-yl)oxy]phenyl}-1-(4-methylpiperazin-1-yl)propan-1-one] | 50 (≈ 0.0208 µg/mL) | 50 (≈ 0.0208 µg/mL) | 4.10 | 4.32 | 25 to 50 | 25 to 50 | 5.62 | MLM = 41 mL/min/g liver | HLM = 7.9 mL/min/g liver | 62 | 0.019 | DPI7 = 59% | no overt toxicity | have anticryptosporidial activity | more effective than paromomycin | equally as effective as paromomycin | –
CC(C(=O)NCCO)c1ccc(Oc2nc3ccc(Cl)cc3s2)cc1 (stereo not drawn) [NZ-370, 2-{4-[(6-chloro-1,3-benzothiazol-2-yl)oxy]phenyl}-N-(2-hydroxyethyl)propanamide] | 50 to 60 (≈ 0.0188 to 0.0226 µg/mL) | 50 to 60 (≈ 0.0188 to 0.0226 µg/mL) | < 4.00 | < 4.00 | ≥ 100 | ≥ 100 | – | – | – | 40 | – | – | – | – | – | – | 4.52
